Source: PMC7408964, “Efficient Therapeutic Delivery by a Novel Cell-Penetrating Peptide Derived from Acinus” (Cancers, 2020)
Where no end group is shown, it is not given here.

Experiments:
[1] = system: non T-cells, CD3− cells; experiment: Ex vivo cell death in Sézary patients' PBMC, 7-AAD flow cytometry, non T-cells; format: cell-based, human; conditions: increasing concentrations, 4 h, 37 °C, PBMC of three patients
Description: (§1) SS diagnosis was established on recognized international clinical, histological, and biological criteria. Blood from SS patients with more than 90% of malignant CD4^+ T cells (identified by their TCR-Vβ rearrangement) was collected for the present study, which was approved by the institutional ethics committee (Saint Louis Hospital, Paris. Protocol no. 2011-oct.12735). Peripheral blood mononuclear cells (PBMC) were isolated from heparinized venous blood by density gradient centrifugation over lymphocytes separating medium (LSM; PAA Laboratories, Les Mureaux, France). The Sézary cell line HUT78 was amplified as previously described and cultured in RPMI 1640 supplemented with 2 mM L-glutamine, 1% penicillin-streptomycin (Invitrogen) and 10% heat-inactivated fetal calf serum (Life Technologies). All other cell lines were cultured in DMEM supplemented with 2 mM L-glutamine, 1% penicillin-streptomycin (Invitrogen) and 10% heat-inactivated fetal calf serum (Life Technologies).
(§2) PBMC exposed or not to RT33 or RT33 DR were processed for flow cytometry to assess cell death. Cells were labelled with a mix of anti-TCR-Vβ-FITC, -CD3-PE, and -CD4-PE-Cy7 mAbs (Beckman Coulter). Detection of apoptotic cells was performed using 7 AAD (BD Biosciences). Cells were analyzed on a CytoFlex cytometer (Beckman Coulter) and data treated with FlowJo software.

[2] = system: HUT78 Sézary cells xenograft; experiment: Sub-cutaneous xenograft mouse model for the Sézary syndrome; format: in vivo, NOD/SCID gamma (NSG) mice; conditions: 5 mg/kg daily i.p.
Description: Animal experiments were approved by The University Board Ethics Committee for Experimental Animal Studies (#2303.01). Xenograft tumors were obtained by subcutaneous injection of 10^6 HUT78 cells in the right flank of 8-week-old female NOD-SCID-gamma (NSG) mice, bred and housed under pathogen-free conditions at our animal facility (IUH, Saint Louis Hospital, Paris, France). Treatment started after randomization when tumors were visible and consisted of daily intraperitoneal (i.p.) injection of normal saline or RT33 or RT33 DR in normal saline (n = 5 per group). Tumor volume was measured every other day and calculated as: long axis × short axis^2 × 0.5. Animals were euthanized after 21 days of treatment or when tumor size reached the ethical end point and visceral organs were excised for a gross pathological examination. Tumors were fixed in 4% neutral buffered formalin and embedded in paraffin. Sections (4 µm) were stained with hematoxylin-eosin (H&E) and subjected to microscopic analysis and image recording. Histological analysis was performed at the HistIM facility of Cochin Institute (Paris, France). Slides were imaged using a Lamina multilabel slide scanner (Perkin Elmer).

[3] = system: HUT78 Sézary cells; experiment: Cell viability, MTT assay, HUT78 cells (with or without cell death inhibitors); format: cell-based; conditions: 20 h; for effect of pan-caspase inhibitor zVAD-fmk on peptide-induced cytotoxicity: increasing peptide concentrations, 50 μM zVAD-fmk, MTT, n = 3
Description: (§3) Cells survival was assessed with the CellTiter 96® Aqueous One Solution Cell Proliferation Assay kit (Promega, Madison, WI, USA).

[4] = system: normal (HaCat, MRC-5) cells; experiment: Cell viability, MTT assay, normal cells; format: cell-based; conditions: increasing concentrations, 20 h, n = 3
Description: as §3

[5] = system: non-malignant CD4+ T-cells, CD3+CD4+Vβ− cells; experiment: Ex vivo cell death in Sézary patients' PBMC, 7-AAD flow cytometry, non-malignant CD4+ T-cells; format: cell-based, human; conditions: increasing concentrations, 4 h, 37 °C, PBMC of three patients
Description: as §1, §2

Substance | cell death / viability of non T-cells (7-AAD+) [1] | clinical symptoms during the experimental period [2] | effect of pan-caspase inhibitor zVAD-fmk on peptide-induced cytotoxicity [3] | cell viability of normal cells [4] | cell death / viability of non-malignant CD4+ T-cells (7-AAD+) [5] | cell viability, AAC-11 portion alone ([3]; 20 µM, MTT assay, n = 3 (Supplementary Figure S4))
RSRSRRRRRKLQYFARGLQVYIRQLRLALQGKT [RT33DR] | neither peptide decreased cell viability | No obvious clinical symptoms | did not block | sparing the normal cells tested | neither peptide decreased cell viability | –
RSRSRDRRRK [hAP10] | did not induce cell death | – | – | – | did not induce cell death | –
AAC-11 specific portion: peptide comprising AAC-11 residues 377 to 399, without CPP (LQYFARGLQVYIRQLRLALQGKT; UniProt Q9BZZ5 377-399, looked up, fragment) [reference compound] | – | – | – | – | – | nor the AAC-11 specific portion alone (Supplementary Figure S4) decreased cell viability
RSRSRRRRRK [hAP10DR] | did not induce cell death | – | – | – | did not induce cell death | –
RSRSRDRRRKLQYFARGLQVYIRQLRLALQGKT [RT33] | neither peptide decreased cell viability | No obvious clinical symptoms | did not block | sparing the normal cells tested | neither peptide decreased cell viability | –
